Assay: Solubility test in test solvents
Format: physicochemical
Description: The test solvent was poured into a beaker, an amount of the compound 4-(3-ethoxy-4-hydroxyphenyl)-2-butanone was added with magnetic stirring and the mixture was left to stand for between 1 hour and 24 hours. The mixture was then heated to 50° C. and then cooled to room temperature (25° C.) over 24 hours. The system was then observed to see if the amount of compound introduced recrystallized or remained dissolved.
The amount of compound that can be dissolved in the test solvent was determined in this manner. The maximum value corresponds to the amount at and above which the ester compound stops dissolving in the evaluated solvent.

CCOc1cc(CCC(C)=O)ccc1O [4-(3-ethoxy-4-hydroxyphenyl)-2-butanone]
Solubility (in words) (in water or glycerol): very sparingly soluble
Dissolution (in words) (with ethanol, 1,2-propylene glycol, 1,3-propanediol, PEG-8 and propylene carbonate): very satisfactorily dissolved
Dissolution (in words) (with glycerol): very sparingly dissolved
